# US20130344490A1, “NEOPLASTIC CELLS GROWN ON DECELLULARIZED BIOMATRIX” (priority 2012, published 2013)
# How the values were obtained:
# [1] = system: human 1299 cells (NCI-H1299) cultured within rat decellularized biomatrices; assay: Ki-67 and TUNEL staining of treated and untreated lung tissue constructs; type: cell-based; conditions: 50 μM Cisplatin from day 4 of culture; compared with untreated constructs (FIG. 14)
# From the text: Lobes of same lungs were dissected at day 0 (day of seeding cancer cells onto biomatrix), day 3, day 7, and day 11 or day 14 (or both) in sterile conditions under the culture hood to see the progression of tumor growth. After lobectomy, lung tissues were placed in 70% ethanol and analyzed in the Pathology Core Laboratory at The Methodist Hospital Research Institute. Briefly, the tissues were fixed in 10% formalin overnight, processed, and embedded in paraffin. Embedded tissues were cut into […] slices and mounted on slides, and the paraffin was removed; antigen retrieval was performed with antigen unmasking solution (H-3300; Vector Laboratories, Burlingame, Calif.) in a steamer for 20 minutes. Slides were cooled for 20 minutes at room temperature, washed in PBS, and stained with hematoxylin and eosin, Movat Pentachrome (American MasterTech Scientific, Lodi, Calif.), elastin (VVG kit, Ventana Nexus, Tucson, Ariz.), and other markers following the standard protocol. Stained slides were examined by expert board-certified pathologists, and images were captured using a microscope (Olympus, Center Valley, Pa.). […] Treatment (Tx) with 50 μM Cisplatin was commenced at day 4 of culture, and treated tissue constructs and untreated controls were assessed and compared at days 4, 8, 11, and 14 of culture (FIGS. 11 and 12). […]
# [2] = system: human 1299 cells (NCI-H1299) cultured within rat decellularized biomatrices; assay: Cisplatin treatment of tissue constructs: tumor size and live cells; type: cell-based; conditions: 50 μM Cisplatin from day 4 of culture
# Protocol: A simplified, small, closed-system bioreactor was set up in an incubator for lung cell culture on the lung biomatrix (FIG. 1B). A custom-designed 500-mL glass bottle was used with three holes in the cap fitted with a female Luer thread-style panel (Cole-Parmer), one for the pulmonary artery cannula, one for the trachea cannula, and one for circulation of medium from the bottle. Medium was constantly circulated with the help of a Masterflex pump (Cole-Parmer) through a 10-foot length of silicone oxygenator tubing wrapped around a mesh of wire solenoid (Cole-Parmer). The medium was perfused through the pulmonary artery cannula into lungs at a flow rate of 6 mL/min. For controlled flow through the pulmonary artery, it was connected to a three-way stopcock (Smith Medical, Dublin, Ohio). The bottle was filled with 150 mL of complete medium or serum-free medium, which was circulated through the oxygenator tubing to prevent air bubbles. […] Treatment (Tx) with 50 μM Cisplatin was commenced at day 4 of culture, and treated tissue constructs and untreated controls were assessed and compared at days 4, 8, 11, and 14 of culture (FIGS. 11 and 12). […]
# MMPs 1, 2, 7, 9, and 10 = assay: MMP secretion into perfusion fluid of treated and untreated lung tissue constructs; type: cell-based, human; conditions: 50 μM Cisplatin from day 4 of culture
# From the text: In some embodiments, the analyzing comprises an assessment of one or more molecules secreted into a perfusion fluid by the cells cultured within the tissue construct. For example, in a lung tissue construct, the analyzing may comprise detecting a protein, peptide, or nucleic acid in a perfusion fluid run through the pulmonary artery. In some embodiments, the secreted factor assessed is a secreted factor associated with cancer, or with a property of neoplastic cells, for example, with the metastatic capabilities of neoplastic cells. Secreted factors associated with cancer are known to those of skill in the art and include factors that are typically secreted by a tumor, such as growth factors and pro-angiogenic factors, as are factors associated with the metastatic capabilities of neoplastic cells. Metastasis-associated factors include, for example, matrix metalloproteases (MMPs, e.g., MMP-1, MMP-2, MMP-3, MMP-9, and MMP-10, as well as other MMPs). Tissue constructs were generated by culturing human 1299 cells, also known as NCI-H1299 or CRL-5803, a human non-small cell lung carcinoma cell line, within rat decellularized biomatrices. Treatment (Tx) with 50 μM Cisplatin was commenced at day 4 of culture, and treated tissue constructs and untreated controls were assessed and compared at days 4, 8, 11, and 14 of culture (FIGS. 11 and 12). […]
# [3] = system: human 1299 cells (NCI-H1299) cultured within rat decellularized biomatrices; assay: Circulating cells in perfusion fluid of treated and untreated lung tissue constructs; type: cell-based; conditions: 50 μM Cisplatin from day 4 of culture, over the observed time period, untreated showed steady increase (FIG. 15)
# Protocol: In some embodiments, the analyzing comprises determining the number of cells in the perfusion fluid used to perfuse a tissue construct as described herein. The number of cells in the perfusion fluid, also referred to as the number of circulating cells herein, can be used as an indicator for the metastatic properties of neoplastic cells cultured within the tissue construct. For example, in tissue constructs in which neoplastic cells are cultured within the interstitial space, and perfusion fluid is run through the vascular space, cells found in the perfusion fluid may stem from neoplastic cells that have migrated across the basement membrane separating the interstitial and the vascular space. Since the capability to migrate across the basement membrane and, thus, to enter into the blood stream, is a hallmark feature of metastasizing cancer cells, the ability to migrate across the basement membrane in a tissue construct is a biomarker useful for assessing metastatic capabilities of cells grown in tissue constructs provided herein. […] Treatment (Tx) with 50 μM Cisplatin was commenced at day 4 of culture, and treated tissue constructs and untreated controls were assessed and compared at days 4, 8, 11, and 14 of culture (FIGS. 11 and 12). […]
smiles,measurement,setting,value
N.N.[Cl][Pt][Cl] [Cisplatin],Ki-67 expression,[1],decreased in treated constructs
same,TUNEL staining,[1],widespread apoptotic processes
same,percentage of live cells,[2]; compared with non-treated constructs (FIG. 13),dramatically decreased
same,Tumor size,"[2]; compared with untreated constructs, days 4, 8, 11, 14 (FIG. 13)",dramatically decreased
same,Levels of the assessed MMPs at the end of the observation period,"MMPs 1, 2, 7, 9, and 10; end of the observation period (FIG. 16)",no detectable levels
same,"Levels of MMPs 1, 2, 7, 9, and 10 in perfusion fluid after start of treatment","MMPs 1, 2, 7, 9, and 10; untreated gradually increased over time (FIG. 16)",levels of all MMPs were diminished
same,number of circulating cells,[3],gradual decrease over the observed time period after initial rapid release of the circulating cells
